Like-named read-outs stand apart in the source and are kept apart here.
Assays:
[1] = test system: reserpine-induced hypothermia; assay: Antagonistic activity against reserpine-induced hypothermia; type: in vivo, ddY male mice; settings: Mus musculus, po, read-out: ED50 (dose exhibiting 50% antagonistic activity against reserpine hypothermia)
Experimental: A. ANTAGONISTIC ACTIVITY AGAINST RESERPINE-INDUCED HYPOTHERMIA
A test was carried out using ddY male mice of 22-25 g in body weight, one group consisting of 6 mice.
The body temperature of mice was approximately 38° C. before the test. At 4 hours after intraperitoneal administration of reserpine in an amount of 5 mg/kg the body temperature of mice was reduced by approximately 8° C. in average. The test compound was simultaneously orally administered with 5 mg/kg of reserpine, and the degree of antagonistic effect of the test compound on the hypothermal action of reserpine was measured. This test has hitherto been the commonest method for evaluating anti-depressant activity.
Percentage (%) of an antagonistic activity was calculated by varying the doses of each test compound.

[2] = Acute toxicity (LD50) in male mice; settings: mouse, in vivo, po
[3] = test system: passive avoidance response failure by electric shock; assay: Passive avoidance response failure by electric shock as model of amnesia; type: in vivo; settings: p.o., male Wistar rats, 3 hours or more after oral administration
Description: B. PASSIVE AVOIDANCE RESPONSE FAILURE BY ELECTRIC SHOCK AS MODEL OF AMNESIA
The test apparatus used, called as "Two Compartment Avoidance Box", consisted of a large lit compartment and a small dark compartment having a grid floor to which an electric current can be applied, these two compartments being painted black innerly and connected to each other
Male Wistar rats of 170-220 g in body weight enter into the small box soon after they are introduced into the large box. […] This response is called as "passive avoidance response".
However, if an electric shock of 60 mA, 200 Hz for 0.8 second is given to the rat by electrodes set on both ears of the rat immediately after the rat comes out of the small box upon the application of the electric current, the "passive avoidance response" is inhibited. Indeed, the period for entering into the small box from the large box, latency, is shortened. This phenomenon is caused by loss of memory of the electric current applied from the grid floor by the electric shock. The shortened time of latency is used as an index of the loss of memory.
A memory improvement effect of a test compound is expressed in the degree of prolongation of latency (% improvement) in a test carried out 3 hours or more after the oral administration of the test compound after application of an electric shock.

[4] = mice, test compound orally, simultaneously with reserpine 5 mg/kg, body temperature at 4 hours, Litchfield-Wilcoxon method

Row | SMILES | LD50 ([2]; male mice) [mg/kg] | ED50 [1, 4] [mg/kg] | LD50 [2] [mg/kg] | Improvement (prolongation of latency) ([3]; 25 mg/kg) [%] | Improvement (prolongation of latency) ([3]; 100 mg/kg) [%] | also measured
1 | CN(C)CCC=C1c2ccccc2CCc2ccccc21 [Amitriptyline, reference compound] | 380 | – | – | – | – | ED50 ([1]; 4 h): 14.5 mg/kg
2 | Cc1cc2c(-c3ccccc3)nc(N3CCNCC3)nc2s1 [Example 1, 6-METHYL-4-PHENYL-2-PIPERAZINYLTHIENO[2,3-d]PYRIMIDINE] | – | 2 | 1170 | 6.8 | 22.7 | –
3 | Cc1sc2nc(N3CCNCC3)nc(-c3ccccc3)c2c1C [Example 4, 5,6-dimethyl-4-phenyl-2-piperazinyl-thieno[2,3-d]pyrimidine] | 1330 | 1.8 | – | – | – | –
4 | Cc1csc2nc(N3CCNCC3)nc(-c3ccccc3)c12 [Example 5, 5-methyl-4-phenyl-2-piperazinyl-thieno[2,3-d]pyrimidine] | 275 | 4 | – | – | – | –
5 | Clc1cc2c(-c3ccccc3)nc(N3CCNCC3)nc2s1 [Example 7, 6-chloro-4-phenyl-2-piperazinyl-thieno[2,3-d]pyrimidine] | – | 2.4 | – | – | – | –
6 | Cc1cc2c(-c3ccccc3F)nc(N3CCNCC3)nc2s1 [Example 14] | – | 0.27 | 1110 | 30.9 | 51.5 | –
7 | Cc1cc2c(-c3ccccc3Br)nc(N3CCNCC3)nc2s1 [Example 15] | – | 2.9 | 1750 | – | – | –
8 | Cc1cc2c(-c3ccccc3C)nc(N3CCNCC3)nc2s1 [Example 16] | – | 0.5 | 1400 | 12.8 | 46.6 | –
9 | Cc1cc2c(-c3ccccc3C#N)nc(N3CCNCC3)nc2s1 [Example 20] | – | 1.5 | 370 | – | – | –
10 | NC(=O)CN1CCCC1=O [Piracetam, reference compound] | – | – | – | – | – | Improvement (prolongation of latency) ([3]; 250 mg/kg): 22.0%; Improvement (prolongation of latency) ([3]; 500 mg/kg): 14.1%

— US4695568A, “Thieno[2,3-d]pyrimidine derivatives and salts thereof” (Mitsubishi Chemical Industries Limited, priority 1984, dated 1987)
